Results on one molecule are retold here after patent publication US20240335404A1, “SUBSTITUTED ESTERS CONTAINING POLYOLS AND SACCHARIDES FOR TREATING HEPATOTOXICITY AND FATTY LIVER DISEASES” (SINEW PHARMA INC., priority 2015, published 2024).

The structures appear in SMILES notation.

Data set [1] is described as follows: Pro-drug hydrolysis in fresh human whole-blood (in vitro). Conditions: 37° C., up to 24 hrs (FIG. 1). In kind it is in vitro ADME. As to the method: Fresh human whole-blood were used for drug hydrolysis studies. Drug (10 mg, compound F) was dissolved in 1 mL solution (20% methanol). Drug hydrolysis (n=3) was performed in 20 mL of fresh whole-blood aliquots containing 1.0 mg of drug in a 50-mL flask thermostat at 37° C. in a shaking water bath. At time 0, the drug was added, and after various times of incubation, the blood samples were collected at […], 0.75, 1, 2, 4, 6, 12 and 24 hrs. Blood sample were used 1 mL acetonitrile to quench the enzymatic hydrolysis of the drug as samples were obtained. […] The ESI interface was used in the negative-ion mode.
The pro-drug was monitored at a transition of m/z 688.9∂→180.9, Sucralose was monitored at a transition of m/z 395→359; mannitol was monitored at a transition of m/z 452.3→273.3; C6-mannitol was monitored at a transition of m/z 309→101.1. All the compounds were identified by high-resolution mass spectrophotometry and ^13C NMR. The structure of C6-mannitol (formula (2)) is as follows: […]
The hydrolysis of pro-drug in blood was expressed by plotting the percentage of Pro-drug remaining and the percentage of sucralose, mannitol and C6-mannitol increasing versus time after incubation of the pro-drug in blood (FIG. 1).

Another data set has as its target CYP2E1 (Homo sapiens, UniProt P05181). Nature of the data set: CYP2E1 inhibitory activity assay in human liver microsomes (CZX to 6-OH-CZX).

Sequence of CYP2E1 (P05181 whole entry): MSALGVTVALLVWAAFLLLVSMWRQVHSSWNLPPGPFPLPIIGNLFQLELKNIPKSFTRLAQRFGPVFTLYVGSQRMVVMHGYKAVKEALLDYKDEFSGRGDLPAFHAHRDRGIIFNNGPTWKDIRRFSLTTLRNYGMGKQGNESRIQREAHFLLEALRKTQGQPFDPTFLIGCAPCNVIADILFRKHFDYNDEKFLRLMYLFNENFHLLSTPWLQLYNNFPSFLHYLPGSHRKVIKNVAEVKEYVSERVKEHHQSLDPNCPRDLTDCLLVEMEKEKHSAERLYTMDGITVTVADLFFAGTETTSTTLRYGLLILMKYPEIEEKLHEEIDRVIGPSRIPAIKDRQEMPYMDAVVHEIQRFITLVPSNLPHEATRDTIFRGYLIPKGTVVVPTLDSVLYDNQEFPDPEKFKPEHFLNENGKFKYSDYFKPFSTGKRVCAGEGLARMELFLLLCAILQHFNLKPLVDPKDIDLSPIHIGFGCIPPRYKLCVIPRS
Protocol for CYP2E1: After addition of the test sample, the amount of CYP450 isozyme metabolite standard 6-OH-CZX (6-Hydroxy-Chlorzoxazone) is specific used for calculation of the CYP450 isozyme (CYP2E1) inhibition ratio of the test sample by using the amount of 6-OH-CZX of the control group as the baseline.
All samples were tested in triplicate. To determine the percentage inhibition, each test compound was dissolved in 1, 2, 4 μg/mL to three different concentrations. The CYP2E1 activity levels in the presence of the test compounds were compared with the control incubations. The 500-μL reaction mixture, containing 0.5 mg of microsomal protein, was incubated with 320 μM CZX in the presence of 5 mM MgCl2 and 1 mM NADPH in 50 mM phosphate buffer with pH 7.4 at 37° C. for 30 min. The reaction was terminated by ice-cold acetonitrile, and then 4-hydroxyl tolbutamide was added as an internal standard. The organic phase was evaporated to dryness and reconstituted into the mobile phase (methanol:water=1:1) prior to liquid chromatography-tandem mass spectrometry (LC-MS/MS) analysis. An API 3000 triple-quadrupole mass spectrometer equipped with an ion-spray (ESI) source was used to determine 6-OH-CZX in the human liver microsomes. The ESI interface was used in the positive-ion mode. The 6-OH-CZX was monitored at a transition of m/z 284.5→185.9.
The CYP450 isozyme activity levels in the presence of the test compounds were compared with the control incubations.

For `O=C(CCCCC(=O)OC[C@@H](O)[C@@H](O)[C@H](O)[C@H](O)CO)OCC1O[C@H](O[C@]2(CCl)OC(CCl)C(O)C2O)C(O)C(O)[C@H]1Cl` (stereo in doubt) [Compound F, ((2R,3R,4R,5R,6R)-6-(((2R,5R)-2,5-bis(chloromethyl)-3,4-dihydroxytetrahydrofuran-2-yl)oxy)-3-chloro-4,5-dihydroxytetrahydro-2H-pyran-2-yl)methyl ((2R,3R,4R)-2,3,4,5,6-pentahydroxyhexyl) adipate], the “percentage of pro-drug remaining and metabolites formed in blood” value in data set [1] is “turns into its metabolites including sucralose, mannitol and C6-mannitol”. Also, the “P450 2E1 inhibitor activity” value on CYP2E1 is reported as “effective as P450 2E1 inhibitors”. Moreover, the “CYP 2E1 inhibition ratio (%)” value at CYP2E1 (1 μg/mL) is on record as 17.7 ± 0.7%; on CYP2E1 (2 μg/mL), 33.3 ± 4.1%; on CYP2E1 (4 μg/mL), 45.7 ± 2.5%.
